From patent publication US8119686B2, “Spiroquinone compound and pharmaceutical composition” (Hykes Laboratories LLC, priority 2006, dated 2012)

Assays:
Assay type in all cases: cell-based, human
ABCA1 = experiment: Increase of ABCA1 in THP-1 cell (membrane fraction, SDS-PAGE and immunoblotting); conditions: PMA-differentiated THP-1 macrophages, 24 h culture with compound; relative to cells treated with probucol spiroquinone (=100)
Experimental: THP-1 cells (human leukemia cell; manufactured by American Type Culture Collection) were cultured for 24 hours in 10% FBS-RPMI1640 culture medium (manufactured by Sigma) in the presence of PMA (phorbol myristate acetate; 3.2×10^−7 M; manufactured by Wako Pure Chemical Industries, Ltd.) to obtain differentiated macrophages. The resulting cells were washed with RPMI1640 (manufactured by Sigma) and then added to RPMI1640 culture medium (manufactured by Sigma) with BSA (manufactured by Sigma) having a concentration of 0.2%. The spiroquinone derivatives obtained in Examples 1, 6 and 10 was independently added to the culture medium. Each sample was cultured for 24 hours in the presence or absence of apoAI, and then the ABCA1 expression in the cells was assayed in accordance with the following method. Incidentally, the spiroquinone derivative was dissolved in 2-butabol, and the solution was added to the culture medium so that the final concentration of the spiroquinone derivative was 0.5%.
The cells were washed with PBS (phosphate buffered saline; manufactured by Sigma). The washed cells were collected in 0.5 mM Tris-HCl (pH 8.5) containing a protease inhibitor (manufactured by Sigma), stirred, and allowed to stand on ice for 15 minutes. The resulting cell suspension was centrifuged at 470×g for 5 minutes to precipitate nuclear fractions. Thereafter, the supernatant was centrifuged at 316,000×g for 30 minutes to precipitate membrane fractions. The membrane fractions (15 μg protein) were used to conduct SDS-PAGE and Immunoblotting. The obtained band of the ABCA1 protein was converted into digital data by using an image analysis software (manufactured by […], Photoshop). The relative ratio (%) of the ABCA1 expression level of the cells treated with the spiroquinone derivative to that of the cells treated with probucol spiroquinone was calculated to evaluate the ABCA1 expression activity of the test compounds.

ABCA1 mRNA = experiment: mRNA expression of intracellular ABCA1 (Real Time PCR); conditions: for mRNA Expression level of ABCA1 (relative ratio %): THP-1 macrophages, standardized to GAPDH mRNA, relative to untreated cells (=100)
Experimental: The cells washed with PBS in Test Example 1 were used. From the cells, RNA was extracted with ISOGEN (manufactured by Wako Pure Chemical Industries, Ltd.). By using a Super Script First-Strand Synthesis System for RT-PCR (manufactured by Invitrogen) cDNA was prepared, and the mRNA expression of ABCA1 was assayed by Real Time PCR using ABCA1 specific primer and Power SYBR Green PCR Master Mix (manufactured by Applied Biosystems).
Moreover, the mRNA expression of GAPDH as an internal control was also assayed simultaneously. The mRNA expression level of ABCA1 was standardized as a ratio (%) relative to the mRNA expression level of GAPDH. The mRNA expression level of ABCA1 in the cells treated with the test compound relative to that in untreated cells was calculated and evaluated.

THP-1 cells = experiment: Acceleration of HDL production reaction (apoA-I-dependent cholesterol release into culture medium); conditions: for apoA-1-dependent HDL cholesterol release, increase as compared with probucol spiroquinone: THP-1 cells, fold versus cells treated with probucol spiroquinone; for HDL cholesterol release (relative ratio %): THP-1 macrophages, culture medium after 24 h culture, apoA-I-dependent, relative to cells treated with probucol spiroquinone (=100)
Experimental: The culture medium after 24-hour culture in the presence or absence of apoAI in Test Example 1 was used to examine cholesterol release into the culture medium by the apoA-1-dependent HDL-generating reaction.
Specifically, the culture medium was collected in a 1.5 ml tube and centrifuged at 316,000×g for 5 minutes, and the supernatant was transferred in a glass tube. To the supernatant was added a mixture of chloroform and methanol (volume ratio=2/1) (manufactured by Wako Pure Chemical Industries, Ltd.). The resulting mixture was stirred and further centrifuged at 1,300×g for 5 minutes. After the centrifugation, the resulting water layer was removed. Water was added to the remaining organic layer, and the mixture was stirred again and centrifuged at 1,300×g for 5 minutes. After the centrifugation, the resulting water layer was removed. The organic layer was evaporated to dryness, and cholesterol remaining in the glass tube was quantitatively determined according to an enzymatic method. The relative ratio (%) of the amount of cholesterol release as HDL from the cells treated with the spiroquinone derivative to that from the cells treated with probucol spiroquinone was calculated to evaluate the HDL cholesterol release from the cells treated with the test compounds.

| SMILES | ABCA1 expression level (relative ratio %) (ABCA1) | mRNA expression of ABCA1 in treated THP-1 cells (in words) (ABCA1 mRNA; THP-1 cells) | mRNA Expression level of ABCA1 (relative ratio %) (ABCA1 mRNA) | apoA-1-dependent HDL cholesterol release, increase as compared with probucol spiroquinone (THP-1 cells) | HDL cholesterol release (relative ratio %) (THP-1 cells) |
| --- | --- | --- | --- | --- | --- |
| CC1(CCC(=O)O)SC2(C=C(C(C)(C)C)C(=O)C(C(C)(C)C)=C2)C2(C=C(C(C)(C)C)C(=O)C(C(C)(C)C)=C2)S1 [Example 1, 14-carboxyethyl-14-methyl-2,4,9,11-tetrakis(t-butyl)-13,15-dithiadispiro[5.0.5.3]pentadeca-1,4,8,11-tetraene-3,10-dione] | 238% | – | – | – | – |
| CCCC1(C)SC2(C=C(C(C)(C)C)C(=O)C(C(C)(C)C)=C2)C2(C=C(C(C)(C)C)C(=O)C(C(C)(C)C)=C2)S1 [Example 6, 14-methyl-2,4,9,11-tetrakis(t-butyl)-14-n-propyl-13,15-dithiadispiro[5.0.5.3]pentadeca-1,4,8,11-tetraene-3,10-dione] | 176% | not found | 51% | about 1.3 times | 134% |
| CC(C)(C)C1=CC2(C=C(C(C)(C)C)C1=O)SC1(CCCC1)SC21C=C(C(C)(C)C)C(=O)C(C(C)(C)C)=C1 [Example 10, 9,11,15,17-tetrakis(t-butyl)-6,19-dithiadispiro[4.1.5^7.0.5^13.1^5]nonadeca-8,11,14,17-tetraene-10,16-dione] | 309% | – | – | about 1.3 times | 128% |
| CC1(C)SC2(C=C(C(C)(C)C)C(=O)C(C(C)(C)C)=C2)C2(C=C(C(C)(C)C)C(=O)C(C(C)(C)C)=C2)S1 [Probucol spiroquinone, reference compound] | 100% | – | 65% | – | 100% |
